From ChEMBL document CHEMBL1201862, “PubChem BioAssay data set” (2004)
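In this assay, cells in 96-well plates receive the compound at five concentrations for 48 hours. Endpoints are linearly interpolated between the surrounding concentrations. Here, GI50 denotes the concentration required for 50% inhibition of growth.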 Calls of active or inactive are those of the source. Rule as the data show it: active = GI50 up to about 1.1 µM and inactive = higher.

Columns and labels:
Assay in all cases: NCI tumour cell line growth inhibition, 48 h
DMS-273 = test system: DMS-273
SNB-78 = test system: SNB-78
DMS-114 = test system: DMS-114
HOP-18 = test system: HOP-18
DLD-1 = test system: DLD-1
KM-20L2 = test system: KM-20L2
XF498 = test system: XF498
RXF 631 = test system: RXF 631
LXFL 529 = test system: LXFL 529

| SMILES | GI50 (DMS-273) | GI50 (SNB-78) | GI50 (DMS-114) | GI50 (HOP-18) | GI50 (DLD-1) | GI50 (KM-20L2) | GI50 (XF498) | GI50 (RXF 631) | GI50 (LXFL 529) |
| --- | --- | --- | --- | --- | --- | --- | --- | --- | --- |
| C=C1[C@@H](C)[C@H]2[C@H](Cc3ccccc3)NC(=O)[C@]23OC(=O)/C=C/[C@H](O)CCC[C@@H](C)C/C=C/[C@H]3[C@@H]1O | 8.93 µM (inactive) | 1.03 µM (active) | 14.5 µM (inactive) | 0.156 µM (active) | 0.828 µM (active) | 15.2 µM (inactive) | 0.571 µM (active) | – | – |
| COc1cc(Nc2nc3c(N)cc(C(F)(F)F)cc3nc2-c2ccccc2)cc(OC)c1OC | 37.9 µM (inactive) | – | 81.8 µM (inactive) | 29.8 µM (inactive) | – | > 65.5 µM (inactive) | 19.1 µM (inactive) | > 44.5 µM (inactive) | 63.5 µM (inactive) |
| O=C(O)[C@H](NS(=O)(=O)c1ccc(F)cc1)c1ccccc1 | > 100 µM (inactive) | > 100 µM (inactive) | > 100 µM (inactive) | > 100 µM (inactive) | > 100 µM (inactive) | > 100 µM (inactive) | > 100 µM (inactive) | – | > 100 µM (inactive) |
| COC(=O)C1C(C(=O)OC)C2C(=O)C3C(C(=O)OC)C(C(=O)OC)C3C(=O)C12 (centres undefined) | > 100 µM (inactive) | 64.3 µM (inactive) | – | > 100 µM (inactive) | – | > 100 µM (inactive) | > 100 µM (inactive) | > 100 µM (inactive) | > 100 µM (inactive) |
| CN/C(=N/C#N)NCc1ccccc1 | > 100 µM (inactive) | > 100 µM (inactive) | > 100 µM (inactive) | – | > 100 µM (inactive) | > 100 µM (inactive) | > 100 µM (inactive) | – | > 100 µM (inactive) |
| COc1ccc(NC(=O)/C(=C/c2ccccc2)C(C)=O)cc1 | 13.7 µM (inactive) | 15.5 µM (inactive) | 15.2 µM (inactive) | 13.5 µM (inactive) | 12.8 µM (inactive) | 14.3 µM (inactive) | 16.2 µM (inactive) | 15.7 µM (inactive) | 12.4 µM (inactive) |
| C=C[Si](C)(C)COC(=O)/C(C#N)=C/C=C/c1ccccc1 | 85.7 µM (inactive) | > 100 µM (inactive) | > 100 µM (inactive) | > 100 µM (inactive) | > 100 µM (inactive) | > 100 µM (inactive) | – | – | 47.5 µM (inactive) |
| CC12CC(=O)NN=C1c1ccccc1C2 (centres undefined) | > 100 µM (inactive) | > 100 µM (inactive) | > 100 µM (inactive) | – | > 100 µM (inactive) | > 100 µM (inactive) | > 100 µM (inactive) | – | – |
| Cc1nc2ccccc2nc1CC(=O)C(=O)Nc1ccc(Cl)cc1Cl | > 100 µM (inactive) | > 100 µM (inactive) | – | – | > 100 µM (inactive) | > 100 µM (inactive) | – | > 100 µM (inactive) | > 100 µM (inactive) |
| Cc1nc(N)nc(N)c1CCCCc1ccccc1 | 4.7 µM (inactive) | 35.3 µM (inactive) | 5.02 µM (inactive) | 42.1 µM (inactive) | 6.15 µM (inactive) | 10.8 µM (inactive) | – | 11.9 µM (inactive) | 9.89 µM (inactive) |
| CC1OC(OC2C(CO)OC(O[C@H]3CC[C@@]4(C)C(=CC[C@H]5[C@@H]6C[C@@H]7O[C@]8(CC[C@@H](C)CN8)[C@@H](C)[C@@H]7[C@@]6(C)CC[C@@H]54)C3)C(O)C2O)C(O)C(O)C1O (some centres undefined) | > 100 µM (inactive) | > 100 µM (inactive) | > 100 µM (inactive) | 43.3 µM (inactive) | 55 µM (inactive) | 28.9 µM (inactive) | > 100 µM (inactive) | – | > 100 µM (inactive) |
| COc1cc2cccc(/N=C\c3cccc(OC)c3OC(C)C)c2cc1OC | – | 44.7 µM (inactive) | 17 µM (inactive) | – | 25.6 µM (inactive) | 51.8 µM (inactive) | 26.8 µM (inactive) | – | 14.7 µM (inactive) |
| COc1ccc([N+]2=NC(c3ccc([N+](=O)[O-])cc3)=NN(c3ccccc3)C2)cc1 | > 10 µM (inactive) | > 100 µM (inactive) | 40.1 µM (inactive) | – | 26.5 µM (inactive) | 49.4 µM (inactive) | 55.6 µM (inactive) | – | 27.1 µM (inactive) |
| Cc1cccc(-n2c(N)c(-c3nc4ccccc4[nH]3)sc2=S)c1 | 20.1 µM (inactive) | – | 22.8 µM (inactive) | 47.3 µM (inactive) | 25.1 µM (inactive) | – | – | – | 21 µM (inactive) |
| COc1ccc(C2C(C(=O)O)=C(CO)Oc3cc4c(cc32)OCO4)c(OC)c1 (centres undefined) | 60.3 µM (inactive) | > 100 µM (inactive) | 84.5 µM (inactive) | 98.2 µM (inactive) | 54.7 µM (inactive) | > 100 µM (inactive) | 9.73 µM (inactive) | 87.3 µM (inactive) | – |
| CC(C)=CC(=O)CC(=O)C(=O)Nc1ccc(C)c(C)c1 | > 100 µM (inactive) | > 100 µM (inactive) | – | – | > 100 µM (inactive) | > 100 µM (inactive) | > 100 µM (inactive) | > 100 µM (inactive) | > 100 µM (inactive) |
| O=[N+]([O-])c1ccc(C2=Nn3cnnc3SC2)o1 | 17.6 µM (inactive) | 22.2 µM (inactive) | 10.8 µM (inactive) | – | 19.6 µM (inactive) | – | 16.6 µM (inactive) | 12.1 µM (inactive) | 13.6 µM (inactive) |
| O/N=C1/C(=C/c2ccc(OCc3ccccc3)cc2)CCCC1C(NO)c1ccc(OCc2ccccc2)cc1 (centres undefined) | 13 µM (inactive) | – | – | 33 µM (inactive) | 10.2 µM (inactive) | 8.38 µM (inactive) | – | 8.47 µM (inactive) | 12.7 µM (inactive) |
| O=C(Nc1ccc([N+](=O)[O-])cc1[N+](=O)[O-])C(=O)C(C(=O)c1ccc(Cl)c(Cl)c1)C1OC(=O)c2ccccc21 (centres undefined) | 31 µM (inactive) | 21.9 µM (inactive) | 18.1 µM (inactive) | – | 19.1 µM (inactive) | 29.8 µM (inactive) | – | – | 17.1 µM (inactive) |
| O=[N+]([O-])c1ccc(C2=Nn3c(nnc3-c3ccccc3)SC2)o1 | 20 µM (inactive) | 20.3 µM (inactive) | 19.7 µM (inactive) | 19.5 µM (inactive) | 14 µM (inactive) | 24.7 µM (inactive) | 19.7 µM (inactive) | – | 16.1 µM (inactive) |
| COc1ccc(-c2c3ccccc3c(-c3ccc(OC)cc3)c3ccccc23)cc1 | > 100 µM (inactive) | > 100 µM (inactive) | > 100 µM (inactive) | > 100 µM (inactive) | > 100 µM (inactive) | > 100 µM (inactive) | > 100 µM (inactive) | – | > 100 µM (inactive) |
| Cc1cc2nc3c(=O)[nH]c(=O)nc-3n(CC(O)C(O)C(O)CO)c2cc1N (centres undefined) | > 100 µM (inactive) | > 100 µM (inactive) | > 100 µM (inactive) | > 100 µM (inactive) | – | – | – | > 100 µM (inactive) | > 100 µM (inactive) |
| C/C=N\N1C(=O)c2ccccc2C1=O | > 100 µM (inactive) | > 100 µM (inactive) | > 100 µM (inactive) | > 100 µM (inactive) | > 100 µM (inactive) | > 100 µM (inactive) | > 100 µM (inactive) | > 100 µM (inactive) | > 100 µM (inactive) |
| CC(=O)Nc1[nH]n(C)c(=O)c1-c1nnc(C)s1 | > 100 µM (inactive) | > 100 µM (inactive) | > 100 µM (inactive) | – | > 100 µM (inactive) | > 100 µM (inactive) | > 100 µM (inactive) | > 100 µM (inactive) | > 100 µM (inactive) |
| CC1OC(n2cc(F)c(=O)[nH]c2=O)C=CC1O (centres undefined) | > 100 µM (inactive) | > 100 µM (inactive) | > 100 µM (inactive) | > 100 µM (inactive) | > 100 µM (inactive) | > 100 µM (inactive) | > 100 µM (inactive) | > 100 µM (inactive) | > 100 µM (inactive) |
| CNC(=O)OCc1nc([S+](C)[O-])n(C)c1COC(=O)NC (centres undefined) | > 100 µM (inactive) | > 60.5 µM (inactive) | > 34.6 µM (inactive) | > 88.9 µM (inactive) | > 100 µM (inactive) | > 100 µM (inactive) | > 100 µM (inactive) | > 100 µM (inactive) | > 23.1 µM (inactive) |
| NC(=O)c1c[se]c(C2OC(CO)C(O)C2O)n1 (centres undefined) | 3.58 µM (inactive) | – | 25.4 µM (inactive) | > 100 µM (inactive) | 1.88 µM (inactive) | – | 8.91 µM (inactive) | 7.6 µM (inactive) | 17 µM (inactive) |
| CCCN(CCC)C(=O)Cc1c2n(c3ccccc13)Cc1ccccc1-2 | 29.1 µM (inactive) | > 100 µM (inactive) | 23.6 µM (inactive) | > 100 µM (inactive) | 63.4 µM (inactive) | > 100 µM (inactive) | > 100 µM (inactive) | – | 42.4 µM (inactive) |
| Cc1cn([C@H]2C[C@H](N=[N+]=[N-])[C@@H](CO)O2)c(=O)[nH]c1=O [ZIDOVUDINE] | > 100 µM (inactive) | – | > 95.5 µM (inactive) | > 100 µM (inactive) | > 100 µM (inactive) | > 100 µM (inactive) | – | – | – |
